Results on eight compounds are retold here after ChEMBL document CHEMBL1201862, “PubChem BioAssay data set” (2004).

Among the test systems are MOLT-4; SR; U-251; UACC-62; A549; NCI-H226; HCT-15; PC-3; COLO 205; K562; SNB-78; OVCAR-3; UO-31; Hs-578T; T47D; HCT-116; Malme-3M; SK-OV-3; NCI-H522; M14.
Assay in all cases: NCI tumour cell line growth inhibition, 48 h

Each structure is given as a SMILES string.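 In this assay, cells in 96-well plates receive the compound at five concentrations for 48 hours. Endpoints are linearly interpolated between the surrounding concentrations. Here, GI50 denotes the concentration required for 50% inhibition of growth.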 Activity calls are given as the source filed them. No stated cut-off is given here; in the data, active = GI50 up to about 1.1 µM and inactive = higher. Some results are limits rather than exact numbers.

`CCOC(C/N=c1/nc(N(C)C)ss1)OCC`: the GI50 with MOLT-4 is 0.593 µM (active); with SR, 1.48 µM (inactive); in the assay with U-251 it was 16 µM (inactive); in the assay on UACC-62, 1.17 µM (inactive); in the assay on A549, 57 µM (inactive); with NCI-H226, 24.6 µM (inactive). The GI50 is 25.8 µM in the assay on HCT-15; 14.3 µM (inactive) in the assay on PC-3; 0.986 µM (active) in the assay with COLO 205; 0.354 µM (active) with K562; 24.6 µM (inactive) in the assay on SNB-78; 9.89 µM (inactive) with OVCAR-3. The GI50 in the assay with UO-31 was 43.5 µM (inactive); with Hs-578T it was > 54.8 µM (inactive); in the assay on T47D it was 23.4 µM (inactive); in the assay on HCT-116 it was 14.9 µM (inactive); in the assay with Malme-3M, 7.71 µM (inactive); in the assay with SK-OV-3, > 100 µM (inactive). The GI50 is 0.0998 µM (active) in the assay on NCI-H522 and 16.9 µM (inactive) with M14.

In the case of `N=C(N)NCCCCCCC(=O)NC(O)C(=O)NCCCCNCCCN` (stereo not given), the GI50 was 659 µM (inactive) in the assay with MOLT-4; 1280 µM (inactive) with SR; 611 µM (inactive) in the assay with U-251; 711 µM (inactive) with UACC-62; 473 µM (inactive) in the assay with A549; 687 µM (inactive) in the assay on NCI-H226. Besides, the GI50 in the assay with HCT-15 was 656 µM; in the assay with PC-3 it was > 750 µM (inactive); with COLO 205, 600 µM (inactive); in the assay on K562, 551 µM (inactive); in the assay with SNB-78 it was > 750 µM (inactive); in the assay with OVCAR-3, 474 µM (inactive). Also, the GI50 in the assay with UO-31 was 590 µM (inactive); in the assay on Hs-578T, 748 µM (inactive); with T47D, > 750 µM (inactive); with HCT-116, 711 µM (inactive); with Malme-3M it was 582 µM (inactive); in the assay on SK-OV-3 it was > 750 µM (inactive). In addition, the GI50 in the assay with NCI-H522 was 479 µM (inactive); in the assay with M14, > 750 µM (inactive).

Regarding `NC(=O)N/N=C(/c1nc2ccc([N+](=O)[O-])cc2nc1O)C(O)c1ccco1` (stereo not given), the GI50 with MOLT-4 was 94.6 µM (inactive); with SR it was 57.1 µM (inactive); in the assay with U-251, 54.2 µM (inactive); in the assay on UACC-62, 29.2 µM (inactive); in the assay with A549, 93.8 µM (inactive); in the assay with NCI-H226 it was > 100 µM (inactive). Also, the GI50 with HCT-15 was 12 µM; in the assay with COLO 205 it was 40 µM (inactive); with K562 it was 33.9 µM (inactive); in the assay with SNB-78 it was > 100 µM (inactive); with OVCAR-3, > 100 µM (inactive); in the assay with UO-31, 53.6 µM (inactive). For the same compound, the GI50 in the assay with HCT-116 was > 100 µM (inactive); in the assay with Malme-3M, > 100 µM (inactive); in the assay on SK-OV-3, > 100 µM (inactive); in the assay with NCI-H522, 14.7 µM (inactive); with M14 it was 93.8 µM (inactive).

`N=C1OC(c2ccc3c(c2)OCO3)C(NNS(=O)(=O)c2ccccc2)=C1O` (stereo not given): the GI50 in the assay on MOLT-4 was > 100 µM (inactive); in the assay with SR, 61.2 µM (inactive); with U-251 it was 54.7 µM (inactive); with UACC-62, > 100 µM (inactive); in the assay with A549, > 100 µM (inactive); with NCI-H226, > 100 µM (inactive). Besides, the GI50 with HCT-15 is > 100 µM; in the assay on COLO 205 it was > 100 µM (inactive); in the assay with K562, > 100 µM (inactive); with SNB-78, > 100 µM (inactive); with OVCAR-3, > 100 µM (inactive); with UO-31, > 100 µM (inactive). The GI50 in the assay on HCT-116 is > 100 µM (inactive); in the assay on Malme-3M it was > 100 µM (inactive); with SK-OV-3, > 100 µM (inactive); in the assay on NCI-H522 it was 48.5 µM (inactive); with M14, 46.6 µM (inactive).

Regarding `C/C=C/C#CC#C/C=C/C=C/C(O)CCO` (stereo not given), the GI50 is 17.5 µM (inactive) in the assay with MOLT-4; > 23.1 µM (inactive) with SR; > 23.1 µM (inactive) in the assay on U-251; > 23.1 µM (inactive) with UACC-62; > 23.1 µM (inactive) in the assay with A549; > 23.1 µM (inactive) in the assay with NCI-H226. The GI50 is > 23.1 µM in the assay with HCT-15; > 23.1 µM (inactive) in the assay on COLO 205; > 23.1 µM (inactive) in the assay on K562; > 23.1 µM (inactive) in the assay with SNB-78; > 23.1 µM (inactive) in the assay with OVCAR-3; > 23.1 µM (inactive) in the assay on UO-31. Further, the GI50 in the assay on HCT-116, with Malme-3M, in the assay with SK-OV-3, with NCI-H522 and in the assay with M14 was > 23.1 µM (inactive) throughout.

For `CSc1nnc(C(C#N)C#N)nn1`, the GI50 in the assay with MOLT-4, in the assay on SR, in the assay with U-251, in the assay with UACC-62, in the assay with A549 and with NCI-H226 was > 100 µM (inactive) each time. Besides, the GI50 in the assay on HCT-15 was > 100 µM; in the assay with COLO 205, > 100 µM (inactive); in the assay on K562 it was > 100 µM (inactive); in the assay on SNB-78, > 100 µM (inactive); in the assay with OVCAR-3, > 100 µM (inactive); with UO-31 it was > 100 µM (inactive). Also, the GI50 in the assay on HCT-116, in the assay on Malme-3M, in the assay with SK-OV-3, in the assay with NCI-H522 and in the assay with M14 was > 100 µM (inactive) in each case.

For the compound `CCCCCCCCCCCCCCCC(=O)Nc1ccn(C2OC(CO)C(O)C2O)c(=O)n1` (stereo not given), the GI50 in the assay with MOLT-4 is 0.131 µM (active); in the assay on SR it was 0.6 µM (active); in the assay with U-251 it was 12.4 µM (inactive); in the assay with UACC-62 it was 24.2 µM (inactive); with A549 it was 2.62 µM (inactive); with NCI-H226, 30.5 µM (inactive). Also, the GI50 is 17.7 µM with HCT-15; 3.78 µM (inactive) in the assay on PC-3; 37.9 µM (inactive) in the assay with COLO 205; 9.75 µM (inactive) with K562; > 100 µM (inactive) with SNB-78; 34.2 µM (inactive) in the assay with OVCAR-3. In addition, the GI50 in the assay with UO-31 was 3.4 µM (inactive); with Hs-578T, > 45.2 µM (inactive); with T47D, 30.1 µM (inactive); with HCT-116, 1.21 µM (inactive); in the assay on Malme-3M, 4.22 µM (inactive); in the assay on SK-OV-3, 16.7 µM (inactive). For the same compound, the GI50 with NCI-H522 is 2.25 µM (inactive); in the assay with M14, 3.21 µM (inactive).

`COc1cc2c(c(OC)c1OC)-c1ccc(SC)c(=O)cc1[C@@H](NCc1ccc([N+](=O)[O-])cc1)CC2`: the GI50 is 0.00478 µM (active) in the assay on MOLT-4; 0.00148 µM (active) with SR; 0.00416 µM (active) with U-251; 0.00345 µM (active) in the assay on UACC-62; 0.00748 µM (active) in the assay on A549; 0.00284 µM (active) with NCI-H226. Moreover, the GI50 with HCT-15 is 0.00487 µM; in the assay with COLO 205 it was 0.00396 µM (active); with K562 it was 0.00318 µM (active); in the assay on SNB-78 it was 0.00904 µM (active); in the assay with OVCAR-3, 0.003 µM (active); in the assay on UO-31, 0.406 µM (active). The GI50 in the assay with HCT-116 was 0.00369 µM (active); with Malme-3M it was 0.00583 µM (active); with SK-OV-3, 0.00315 µM (active); with NCI-H522 it was 0.00313 µM (active); in the assay on M14, 0.00404 µM (active).
